Where a name gives a salt, the structure may show the parent alone.

Results on four compounds are retold here after EP2628482A1, “Rho kinase inhiitors for use in the treatment of neuroblastoma” (Academisch Medisch Centrum, priority 2012, dated 2013).

One test concerns ROCK. To be noted: cited from earlier work.
The subject of a further test is off-target kinases. The conditions noted are these: reported by Aerie Pharmaceuticals; cited from earlier work.
The subject of test [1] is neuroblastoma cell lines (IMR32, SJNB8, SKNBE, SY5Y, SHEP2, SKNAS). As to the kind of experiment: Light microscopy of phenotypical changes after ROCK inhibitor treatment. The test is classed as cell-based. The conditions noted are these: 25µM, 65 hours; cell bodies smaller, more elongated, neurite outgrowths appear.
Test [2] relates to neuroblastoma cell lines (SKNBE, IMR, SJNB8, SHEP2, SKNAS, SY5Y). As to the kind of experiment: MTT assay (cell viability). The conditions noted are these: for cell viability: all 6 neuroblastoma cell lines, 72 hours, 3 to 200 µM; for IC50: range over 6 neuroblastoma cell lines, 72 hours treatment, dose efficacy curves, read-out: IC50 (concentration drug needed for 50% cell viability reduction). The test is classed as cell-based. On the procedure:
To determine the sensitivity of the cell lines for the ROCK-inhibitors Y27632 and HA 1077 MTT assays were done. […] The IC50 (concentration drug needed for 50% cell viability reduction) of Y27632 determined by dose efficacy curves varied from 18 to 90 µM.
Cells were plated in a 10-30% confluence in a 96-well plate and treated after 24 hours with Y27632 (=Y27632 dihydrochloride; Tocris; Cat.nr. 1254) and HA1077 (=Fasudil hydrochloride; Tocris; Cat.nr. 0541) in a concentration ranging from 3 to 200 µM. 72 hours after treatment, 10 µl of Thyazolyl blue tetrazolium bromide (MTT, Sigma M2128) was added. After 4 hours of incubation 100 µl of 10% SDS, 0.01 M HCI was added to stop the reaction. The absorbance was measured at 570 nm and 720 nm using a platereader (biotech). The IC50 (concentration drug needed for 50% cell viability reduction) was calculated using concentration vector curves.

A further test concerns SHEP2 cells. The experiment in a line: Immunofluorescence (actin / tubulin staining). Type of test: cell-based. The conditions noted are these: 50 micromolar, 24 hours of treatment.

Consider `CN(C)C(C(=O)Nc1ccc2c(=O)[nH]ccc2c1)c1ccsc1` (centres unmarked) [AR-12286], for which the “potency against ROCK” value with ROCK is “nanomolar potency”. In addition, the “number of off-target kinases tested at which activity was seen” value with off-target kinases was 5.
As to `O=S(=O)(c1cccc2cnccc12)N1CCCNCC1` [HA 1077, Fasudil hydrochloride], the “phenotype of the cells (light microscope)” value in test [1] is on record as “more neuronal-like (differentiated) phenotype”. For the same compound, in test [2], the cell viability entry is on record as “decrease in viability” and the IC50 was 15 to 45 µM. Besides, in the test on SHEP2 cells, the “actin organization (phalloidin staining)” value is recorded as “structured actin fibres (green) disappear” and the tubulin localization result is “moves from a nuclear localization towards the cytoplasm”.
`C[C@@H](N)[C@H]1CC[C@H](C(=O)Nc2ccncc2)CC1` [Y27632, Y27632 dihydrochloride]: the “phenotype of the cells (light microscope)” value in test [1] is recorded as “more neuronal-like (differentiated) phenotype”. In addition, in test [2], the cell viability result is “decrease in viability” and the IC50 fell in the range of 18 to 90 µM.
With `C[C@@H](N)c1ccc(C(=O)Nc2ccnc3[nH]ccc23)cc1` [Y-39983/SNJ-1656/RKI-983], the “number of off-target kinases tested at which activity was seen” value in the test with off-target kinases is given as 25.
